GI50 and TGI data for 8 compounds are collected here from PubChem BioAssay (NCI).

Experiment in all cases: NCI-60 cell line screen, 48 h
The subject of experiment [1] is IGROV1 ovarian.
Experiment [2] relates to PC-3 prostate.
For experiment [3], the system named is SF-539 CNS.
In experiment [4] the test system is UACC-62 melanoma.
For experiment [5], the system named is EKVX NSCLC.
In experiment [6] the test system is M14 melanoma.
The subject of experiment [7] is CCRF-CEM leukemia.
The test system of experiment [8] is OVCAR-5 ovarian.
Experiment [9] has as its system MOLT-4 leukemia.
The test system of experiment [10] is SK-MEL-28 melanoma.

SMILES strings stand for the structures. “And” between values parts separate entries of the source, which are not always exact repeats. Identical values can stand only once.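 Test compounds were applied to cells in 96-well plates for 48 hours at 5 doses. GI50 marks 50% less growth. TGI marks complete inhibition of growth.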

As to `CNc1ncc2cc(-c3cc(NC(=O)NCCC(C)(C)C)c(F)cc3C)c(C)nc2n1`, the GI50 is 0.179 µM and 0.151 µM in experiment [1]; 17.4 µM and 6.93 µM in experiment [2]; 0.526 µM and 1.05 µM in [3]; < 0.01 µM and 0.00585 µM in experiment [4]; 2.54 µM and 1.38 µM in experiment [5]; < 0.01 µM and 0.0105 µM in [6]. Besides, the GI50 in experiment [7] is 10.1 µM and > 9.36 µM; in experiment [8] it was 0.0761 µM and 0.083 µM; in experiment [9] it was 0.688 µM and > 2.45 µM; in experiment [10], < 0.01 µM and 0.0101 µM. Further, the TGI in [2] was more than 100 µM; in [3], 9.49 µM and > 10 µM; in experiment [4] it was 0.0881 µM and 0.121 µM; in experiment [5], 99.6 µM and > 10 µM; in experiment [7] it was more than 100 µM; in [8] it was more than 100 µM. The TGI in [9] was more than 69.7 µM; in experiment [10] it was 0.118 µM and 0.239 µM.

Turning to `C[C@H](c1ccccc1)N(CCC(=O)O)C(=O)CCN(C(=O)CCN(C(=O)CCN[C@H](C)c1ccccc1)[C@H](C)c1ccccc1)[C@H](C)c1ccccc1`, the GI50 in experiment [1], in experiment [2], in experiment [3], in experiment [4], in experiment [5] and in [6] was more than 100 µM throughout. Further, the GI50 in [7], in experiment [8], in [9] and in [10] was more than 100 µM each time. Also, the TGI in experiment [1], in experiment [2], in experiment [3], in experiment [4], in [5] and in experiment [6] was more than 100 µM throughout. Also, the TGI in [7], in experiment [8], in experiment [9] and in [10] was more than 100 µM in each case.

Consider `CC/C(=N/N=C(N)N)c1ccc(NC(=O)Nc2ccc(/C(CC)=N/N=C(N)N)cc2)cc1`, for which the GI50 in experiment [1] was 3.15 µM; in experiment [2] it was 6.27 µM; in experiment [3], 8.04 µM; in experiment [4] it was 5.13 µM; in [5], 6.55 µM; in experiment [6], 10.4 µM. The GI50 in experiment [7] was 5.8 µM; in [8] it was 18.8 µM; in experiment [9] it was 2.07 µM; in experiment [10], 12.6 µM. Further, the TGI amounted to 14.8 µM in [1]; 33.7 µM in [2]; 35.9 µM in experiment [3]; 22.7 µM in [4]; 39.6 µM in experiment [5]; 37.4 µM in experiment [6]. Moreover, the TGI in experiment [7] was 28.7 µM; in experiment [8] it was 44.6 µM; in experiment [9], 6.51 µM; in experiment [10] it was 46.9 µM.

With `COc1ccc(-c2nc3sccn3c2-c2ccnc(NCCCNS(=O)(=O)c3ccc(F)cc3)n2)cc1`, the GI50 in experiment [1] is 3.27 µM; in experiment [2] it was 1.74 µM; in experiment [3], 2.91 µM; in [4] it was 0.752 µM; in experiment [5], 3.12 µM; in [6], 2.54 µM. Further, the GI50 in [7] was 1.52 µM; in experiment [8] it was 4.59 µM; in [9], 1.9 µM; in experiment [10] it was 2.29 µM. Also, the TGI in [1] is more than 100 µM; in experiment [2] it was 6.75 µM; in experiment [3] it was 8.67 µM; in [4], 2.73 µM; in experiment [5], more than 100 µM; in experiment [6] it was 10.2 µM. Further, the TGI was more than 100 µM in experiment [7], more than 100 µM in [8], 7.67 µM in experiment [9] and 6.86 µM in [10].

For `CCc1ccc([O-])c(C=NCCCN(C)CCCN=Cc2cc(C)ccc2[O-])c1.[Co+3].[N-]=[N+]=[N-]`, the GI50 was 20.5 µg/mL and 24.6 µg/mL in experiment [1]; 29.5 µg/mL in [2]; 50 µg/mL and 22.7 µg/mL in [3]; 50 µg/mL and 78.2 µg/mL in experiment [4]; 50 µg/mL and 103 µg/mL in [5]; 50 µg/mL in experiment [6]. The GI50 in [7] is more than 150 µg/mL; in experiment [8], 50 µg/mL and 137 µg/mL; in [9], more than 150 µg/mL; in [10], 50 µg/mL and 91.8 µg/mL. In addition, the TGI in [1] is 50 µg/mL and 55.5 µg/mL; in experiment [2] it was 50 µg/mL; in [3] it was 50 µg/mL and 82.3 µg/mL; in experiment [4], 50 µg/mL and > 150 µg/mL; in experiment [5], 50 µg/mL and > 150 µg/mL; in experiment [6], 50 µg/mL. Further, the TGI was more than 150 µg/mL in [7]; 50 µg/mL and > 150 µg/mL in experiment [8]; more than 150 µg/mL in experiment [9]; 50 µg/mL and > 150 µg/mL in [10].

For the compound `c1cc2c(c(NC3=NCCN3)c1)CCCC2`, the TGI in [1], in [2], in experiment [3], in experiment [4], in experiment [5] and in experiment [6] was more than 100 µM in each case. Moreover, the TGI in experiment [7], in experiment [8], in experiment [9] and in experiment [10] was more than 100 µM each time.

Consider `CNCCNc1nc2ccccc2c2c(=O)c3cccc(C)c3sc12`, for which the GI50 in experiment [1] was 1.29 µM; in [2] it was 1.55 µM; in experiment [3] it was 6.42 µM; in experiment [4], 1.15 µM; in experiment [5] it was 2.73 µM; in experiment [6], 0.853 µM. In addition, the GI50 was 1.28 µM in experiment [7], 3.91 µM in [8], 1.28 µM in [9] and 4.08 µM in experiment [10]. Further, the TGI was 8.06 µM in experiment [1]; 8.7 µM in [2]; 12.8 µM in experiment [3]; 3.39 µM in [4]; 9.87 µM in experiment [5]; 1.7 µM in [6]. Also, the TGI is 3.85 µM in [7], 10.6 µM in experiment [8], 3.42 µM in [9] and 10.5 µM in experiment [10].

With `CCN(CCO)CCCOc1ccc2c(Nc3cc(CC(=O)Nc4cccc(F)c4)[nH]n3)ncnc2c1`, the GI50 in experiment [1] is 26.1 µM; in experiment [2], 17.7 µM; in experiment [4], 26.1 µM; in experiment [5] it was 84.1 µM; in experiment [6], 20.9 µM; in [7] it was < 0.01 µM and 0.0047 µM. Moreover, the figures for the GI50 in experiment [8], in experiment [9] and in [10] were 42.3 µM, 3.38 µM and 16.4 µM, respectively. The TGI was more than 93.1 µM in [1]; more than 64.8 µM in experiment [2]; 22.2 µM and > 2.7 µM in [3]; more than 59.3 µM in experiment [4]; more than 100 µM in experiment [5]; more than 56.2 µM in experiment [6]. The TGI in [7] was 47.9 µM and > 5.1 µM; in [8], more than 100 µM; in experiment [9], more than 88.4 µM; in experiment [10], 31.4 µM.
